Experimental findings from patent publication US7897727B2, “Bioactive peptide for cell adhesion” (University of Delaware, priority 2000, dated 2011) are described below.

Entries after “also recorded” stand apart in the source; their conditions may differ. No end group written: not given here.

One test has as its system HES cells. As to the kind of experiment: Cell adhesion assay on coated 96 well plates (MTS), HES cells. The test is classed as cell-based, human. The settings on record: peptide conjugated to BSA coated on MAXISORP plates; 1 hr attachment at 37° C.; serum-free RPMI 1640. As to the method: (§1) Concentrated stocks of rat-tail type I collagen were diluted to designated concentrations in 0.02 N acetic acid and coated overnight on MAXISORP® 96 well plates at room temperature (RT). Poly-L-lysine (PLL), heat-denatured bovine serum albumin (BSA), the peptide of SEQ ID NO:1 conjugated to BSA (indicated in FIGS. 4-7 as “PLN4”) and a scrambled peptide from domain IV of perlecan having the amino acid sequence TGKSVGGSLIWPVRGQH (SEQ ID NO:4) conjugated to BSA (indicated in FIGS. 4-7 as “PLN4*”) were diluted in 1×phosphate buffered saline (PBS) and also coated overnight on MAXISORP® 96 well plates at RT. The following day, the plates were washed three times with 1×PBS to remove any residue and blocked with 1% heat-denatured BSA for 1 hr at 37° C. Following blocking, plates were washed once with 1×PBS. Cells from various cell lines were harvested with 0.5 mM EDTA and collected by centrifugation. Pelleted cells were resuspended in serum-free RPMI 1640 and plated at a concentration of 2.5×10^4 cells per 100 μl. Cells were allowed to attach to the wells for 1 hr at 37° C. Next, the wells were washed once with 1% heat-denatured BSA to remove any unattached cells. Cell adhesion was quantified as in Example 1, using the CELLTITER 96® AQueous Non-Radioactive Cell Proliferation Assay (MTS). […] Following incubation, an Elisa plate reader was used to measure optical density. […]

The test system of a further test is PC3 cells. Nature of the test: Cell adhesion assay on coated 96 well plates (MTS), PC3 cells. It is filed as cell-based. The settings on record: peptide conjugated to BSA coated on MAXISORP plates; 1 hr attachment at 37° C.; serum-free RPMI 1640. As for the experimental part:
as §1

The test system of test [1] is marrow stromal cells HS27a. Nature of the test: Cell adhesion assay on coated 96 well plates (MTS), HS27a cells. It is filed as cell-based. Particulars: peptide conjugated to BSA coated on MAXISORP plates; 1 hr attachment at 37° C.; serum-free RPMI 1640. As to the method:
as §1

The next test has as its system marrow stromal cells HS5. Nature of the test: Cell adhesion assay on coated 96 well plates (MTS), HS5 cells. Particulars: peptide conjugated to BSA coated on MAXISORP plates; 1 hr attachment at 37° C.; serum-free RPMI 1640. The test is classed as cell-based. As for the experimental part: as §1
Test [2] has as its system multipotent mouse mesenchymal stem cells, 10T1/2. As to the kind of experiment: Cell adhesion of 10T1/2 cells to coated plastic (CELLTITER 96 MTS assay). It is filed as cell-based. As to the method:
Adhesion is measured by the cell proliferation assay CELLTITER 96® AQueous Non-Radioactive Cell Proliferation Assay (MTS) sold by Promega, Inc. The CELLTITER 96® AQueous Non-Radioactive Cell Proliferation Assay is a calorimetric method for determining the number of viable cells in proliferation, cytotoxicity or chemosensitivity assays. The CELLTITER 96® AQueous Non-Radioactive Cell Proliferation Assay is composed of solutions of a tetrazolium compound (3-(4,5-dimethylthiazol-2-yl)-5-(3-carboxymethoxyphenyl)-2-(4-su-lfophenyl)-2H-tetrazolium, inner salt; MTS) and an electron coupling reagent (phenazine methosulfate) PMS. MTS is bioreduced by cells into a formazan that is soluble in tissue culture medium. The absorbance of the formazan at 490 nm can be measured directly from 96 well assay plates without additional processing. The conversion of MTS into the aqueous soluble formazan is accomplished by dehydrogenase enzymes found in metabolically active cells. The quantity of formazan product as measured by the amount of 490 nm absorbance is directly proportional to the number of living cells in culture.
No adhesion to uncoated plastic occurred during the 30 minute time period of this study. BSA (bovine serum albumin) and poly-L-lysine (PLL) were used as coating controls. Collagen I, a known adhesive protein substrate for these cells, served as positive control. […]
A general note: Tetrazolium dyes change colour on reduction, which living cells bring about.

Consider “TGKSVGGSLIWPVRGQH (also: conjugated to BSA) [PLN4*, scrambled peptide from domain IV of perlecan, conjugated to BSA, reference compound]”, for which the “cell adhesion / attachment and spreading, HES cells” value in the test with HES cells is “cell attachment and spreading did not occur”. Besides, the “cell adhesion / attachment and spreading, PC3 cells” value with PC3 cells was “cell attachment and spreading did not occur”. For the same sequence, the “cell adhesion / attachment and spreading, HS27a cells” value in test [1] was “cell attachment and spreading did not occur”. Further, the “cell adhesion / attachment and spreading, HS5 cells” value in the test on marrow stromal cells HS5 is “cell attachment and spreading did not occur”.
For the sequence “TWSKVGGHLRPGIVQSG (also: conjugated to BSA; listed as Homo sapiens) [PLN4, adhesive polypeptide derived from domain IV of perlecan; tested conjugated to BSA]”, in test [2] (peptide conjugated to BSA, coated onto plastic, 30 minute time period, MTS absorbance 490 nm, listed as SEQ ID NO:1), the “adhesion of 10T1/2 cells” value is recorded as “consistently strong; also recorded: best adhesion of the cell types reported herein”. Moreover, the “focal adhesion formation of 10T1/2 cells (photomicrographs)” value in test [2] (plastic coated with BSA conjugated to the polypeptide) is recorded as “adhesion is followed by focal adhesion formation”. Further, the “cell adhesion / attachment and spreading, HES cells” value in the test with HES cells is “best adhesion and rapid focal adhesion formation of these four cell types”. Also, the “cell adhesion / attachment and spreading, PC3 cells” value in the test with PC3 cells was “best adhesion and rapid focal adhesion formation of these four cell types”. In addition, the “cell adhesion / attachment and spreading, HS27a cells” value in test [1] is on record as “did not bind to the peptide”. The “cell adhesion / attachment and spreading, HS5 cells” value with marrow stromal cells HS5 is recorded as “did not bind to the peptide”.
